Measurements reported in patent publication US12501900B2, “Heterocyclyl pyridazine as fungicidal compounds” (Bayer Aktiengesellschaft, priority 2018, dated 2025).
Like-named read-outs stand apart in the source and are kept apart here.

Test: Measurement of LogP values by HPLC on reversed phase columns (EEC directive 79/831 Annex V.A8), methods [a], [b], [c]
Assay type: physicochemical
Protocol: Measurement of Log P values as provided herein was performed according to EEC directive 79/831 Annex V.A8 by HPLC (High Performance Liquid Chromatography) on reversed phase columns with the following methods: • ^[a]
If more than one Log P value is available within the same method, all the values are given and separated by “+”.
Lambda-max-values were determined using UV-spectra from 200 nm to 400 nm and the peak values of the chromatographic signals

[1] = method [a]: LC-UV, acidic range, 0.1% formic acid in water and acetonitrile, Table 7, compounds of formula (3)
[2] = method [a], Table 9, compounds of formula (4)
[3] = method [a]: LC-UV, acidic range, 0.1% formic acid in water and acetonitrile, Table 11, compounds of formula (6)
[4] = method [a]: LC-UV, acidic range, 0.1% formic acid in water and acetonitrile, Table 3, compounds of formula (1)
[5] = method [a]: LC-UV, acidic range, 0.1% formic acid in water and acetonitrile, Table 15, compounds of formula (9)
[6] = method [a]: LC-UV, acidic range, 0.1% formic acid in water and acetonitrile, Table 17, compounds of formula (10)
[7] = method [a], Table 19, compounds of formula (12), two values joined by & in some cells

Cc1ccc(OCC(N)CON2C(=O)c3ccccc3C2=O)c(C)c1 (racemic) [2-12, 2-[rac-2-amino-3-(2,4-dimethylphenoxy)propoxy]isoindoline-1,3-dione 2,2,2-trifluoroacetate]
chromatographic logP (reversed phase HPLC column, method [a]: LC-UV, acidic range, 0.1% formic acid in water and acetonitrile, Table 5, compounds of formula (2)): 1.7

Cc1ccc(OCC(CON2C(=O)c3ccccc3C2=O)NC(=O)OC(C)(C)C)c(C)c1 (racemic) [2-13, tert-butyl N-[rac-1-[(2,4-dimethylphenoxy)methyl]-2-(1,3-dioxoisoindolin-2-yl)oxy-ethyl]carbamate]
chromatographic logP (method [a]: LC-UV, acidic range, 0.1% formic acid in water and acetonitrile, Table 5, compounds of formula (2)): 4.51

Cc1ccc(CC(CON2C(=O)c3ccccc3C2=O)NC(=O)c2cc(Cl)nnc2Oc2cccc(C(F)(F)F)c2)c(C)c1 (racemic) [3-16, 6-chloro-N-[rac-1-[(2,4-dimethylphenyl)methyl]-2-(1,3-dioxoisoindolin-2-yl)oxy-ethyl]-3-[3-(trifluoromethyl)phenoxy]pyridazine-4-carboxamide]
chromatographic logP [1]: 5

Cc1ccc(OCC(CON2C(=O)c3ccccc3C2=O)NC(=O)c2cc(C)nnc2Oc2cccc(C(F)(F)F)c2)c(C)c1 (racemic) [3-33, 6-methyl-N-[rac-1-[(2,4-dimethylphenoxy)methyl]-2-(1,3-dioxoisoindolin-2-yl)oxy-ethyl]-3-[3-(trifluoromethyl)phenoxy]pyridazine-4-carboxamide]
chromatographic logP [1]: 4.56

Cc1ccc(CC(CON)NC(=O)c2cc(Cl)nnc2Oc2cccc(C(F)(F)F)c2)c(C)c1 (racemic) [4-17, 6-chloro-N-[rac-1-(aminooxymethyl)-2-(2,4-dimethylphenyl)ethyl]-3-[3-(trifluoro-methyl)phenoxy]pyridazine-4-carboxamide]
chromatographic logP [2]: 3.37

Cc1ccc(OCC(CON)NC(=O)c2cc(C)nnc2Oc2cccc(C(F)(F)F)c2)c(C)c1 (racemic) [4-33, 6-methyl-N-[rac-1-(aminooxymethyl)-2-(2,4-dimethylphenoxy)ethyl]-3-[3-(trifluoromethyl)phenoxy]pyridazine-4-carboxamide]
chromatographic logP [2]: 3.13

Cc1ccc(CC(CON2C(=O)c3ccccc3C2=O)NC(=O)c2cc(Cl)nnc2Cl)c(C)c1 (racemic) [6-01, 3,6-dichloro-N-[rac-1-[(2,4-dimethylphenyl)methyl]-2-(1,3-dioxoisoindolin-2-yl)oxy-ethyl]pyridazine-4-carboxamide]
chromatographic logP [3]: 3.72

Cc1ccc(CC(CON)NC(=O)c2cc(Cl)nnc2Cl)c(C)c1 (racemic) [6-02, 3,6-dichloro-N-[rac-1-(aminooxymethyl)-2-(2,4-dimethylphenyl)ethyl]pyridazine-4-carboxamide]
chromatographic logP [3]: 1.93

Cc1ccc(CC2CON=C(c3cc(Cl)nnc3Cl)N2)c(C)c1 (racemic) [7-01, rac-3-(3,6-dichloropyridazin-4-yl)-5-[(2,4-dimethylphenyl)methyl]-5,6-dihydro-4H-1,2,4-oxadiazine]
chromatographic logP (method [a]: LC-UV, acidic range, 0.1% formic acid in water and acetonitrile, Table 13, compounds of formula (7)): 2.98

Cc1cc(C2=NOCC(O)N2)c(Oc2cccc(C(F)(F)F)c2)nn1 (racemic) [14-01, rac-3-[6-methyl-3-[3-(trifluoromethyl)phenoxy]pyridazin-4-yl]-5,6-dihydro-4H-1,2,4-oxadiazin-5-ol]
chromatographic logP (method [a]: LC-UV, acidic range, 0.1% formic acid in water and acetonitrile, Table 23, compounds of formula (14)): 1.59

Cc1c(Cl)nnc(Oc2cccc(C3CC3)c2F)c1C(=O)O [1-02, 6-chloro-3-(3-cyclopropyl-2-fluoro-phenoxy)-5-methyl-pyridazine-4-carboxylic acid]
chromatographic logP [4]: 1.84

CON(C)C(=O)c1cc(C)nnc1Oc1cccc(C(F)(F)F)c1 [1-03]
LogP [4]: 2.33^[a]

CON(C)C(=O)c1cc(Cl)nnc1Oc1cccc(C(F)(F)F)c1 [1-07, 6-chloro-N-methoxy-N-methyl-3-[3-(trifluoromethyl)phenoxy]pyridazine-4-carboxamide]
chromatographic logP (reversed phase HPLC column, method [a]: LC-UV, acidic range, 0.1% formic acid in water and acetonitrile, Table 3, compounds of formula (1)): 2.9

Cc1cc(C#N)c(Oc2cccc(C(F)(F)F)c2)nn1 [9-02, 6-methyl-3-[3-(trifluoromethyl)phenoxy]pyridazine-4-carbonitrile]
chromatographic logP [5]: 2.84

N#Cc1cc(Cl)nnc1Oc1cccc(C(F)(F)F)c1 [9-03, 6-chloro-3-[3-(trifluoromethyl)phenoxy]pyridazine-4-carbonitrile]
chromatographic logP [5]: 3.25

COc1cccc(Oc2nnc(Cl)cc2C#N)c1 [9-08]
LogP [5]: 2.75^[a]

Cc1cc(C(N)=NO)c(Oc2cccc(C(F)(F)F)c2)nn1 [10-02, N′-hydroxy-6-methyl-3-[3-(trifluoromethyl)phenoxy]pyridazine-4-carboxamidine]
chromatographic logP [6]: 1.69

NC(=NO)c1cc(Cl)nnc1Oc1cccc(Cl)c1 [10-04]
LogP [6]: 2.00^[a]

NC(=NO)c1cc(Cl)nnc1Oc1cccc(Br)c1F [10-05]
LogP [6]: 2.21^[a]

NC(=NO)c1cc(Cl)nnc1Oc1cccc(C2CC2)c1F [10-07]
LogP [6]: 2.34^[a]

NC(=NO)c1cc(Cl)nnc1Oc1cccc(C2CC2)c1 [10-08]
LogP [6]: 2.19^[a]

NC(=NO)c1cc(Cl)nnc1Oc1cccc(C(F)F)c1F [10-09]
LogP [6]: 1.91^[a]

Cc1cc(C(N)=NOCC(=O)c2ccc(Cl)cc2)c(Oc2cccc(C(F)(F)F)c2)nn1 [12-03, N′-[2-(4-chlorophenyl)-2-oxo-ethoxy]-6-methyl-3-[3-(trifluoro-methyl)phenoxy]pyridazine-4-carboxamidine]
chromatographic logP [7]: 3.42

COc1ccc(C(=O)C(F)(F)ON=C(N)c2cc(C)nnc2Oc2cccc(C(F)(F)F)c2)cc1 [12-14, N′-[1,1-difluoro-2-(4-methoxyphenyl)-2-oxo-ethoxy]-6-methyl-3-[3-(trifluoro-methyl)phenoxy]pyridazine-4-carboxamidine]
chromatographic logP [7]: 3.13

C=CCON=C(N)c1cc(C)nnc1Oc1cccc(C(F)(F)F)c1 [13-01, N′-allyloxy-6-methyl-3-[3-(trifluoromethyl)phenoxy]pyridazine-4-carboxamidine]
chromatographic logP (method [a]: LC-UV, acidic range, 0.1% formic acid in water and acetonitrile, Table 21, compounds of formula (13)): 2.88

O=Cc1cc(Cl)nnc1Oc1cccc(C(F)(F)F)c1 [16-01, 6-chloro-3-[3-(trifluoromethyl)phenoxy]pyridazine-4-carbaldehyde]
chromatographic logP (method [a]: LC-UV, acidic range, 0.1% formic acid in water and acetonitrile, Table 25, compound of formula (16)): 2.04

O/N=C/c1cc(Cl)nnc1Oc1cccc(C(F)(F)F)c1 [17-01, 6-chloro-3-[3-(trifluoromethyl)phenoxy]pyridazine-4-carbaldehyde oxime]
chromatographic logP (reversed phase HPLC column, method [a]: LC-UV, acidic range, 0.1% formic acid in water and acetonitrile, Table 27, compound of formula (17)): 2.88

Cc1ccc(CC(CCl)NC(=NO)c2cc(Cl)nnc2Oc2cccc(C(F)(F)F)c2)c(C)c1 (centres unmarked) [20-01, 6-chloro-N-[1-(chloromethyl)-2-(2,4-dimethylphenyl)ethyl]-N′-hydroxy-3-[3-(trifluoromethyl)phenoxy]pyridazine-4-carboxamidine]
chromatographic logP (method [a], Table 29, compounds of formula (20), read-out: Log P): 4.34

Cc1ccc(CC(CCl)NC(=O)c2cc(Cl)nnc2Oc2cccc(C(F)(F)F)c2)c(C)c1 (centres unmarked) [21-01, 6-chloro-N-[1-(chloromethyl)-2-(2,4-dimethylphenyl)ethyl]-3-[3-(trifluoro-methyl)phenoxy]pyridazine-4-carboxamide]
chromatographic logP (method [a], Table 33, compounds of formula (21)): 5
